# From EP3502102A1, “STING INHIBITORS” (ECOLE POLYTECHNIQUE FEDERALE DE LAUSANNE (EPFL), priority 2017, dated 2019)
# Assays:
# RIG-I = target: T1, RIG-I (Homo sapiens, UniProt O95786); assay: IFN-beta luciferase reporter in HEK293T cells transfected with RIG-I (counter-screen); assay type: cell-based; settings: 0.01-5µM
# T1 construct: expressed in transfected cells; host or cells: HEK293T
# T1 sequence (O95786 1-925): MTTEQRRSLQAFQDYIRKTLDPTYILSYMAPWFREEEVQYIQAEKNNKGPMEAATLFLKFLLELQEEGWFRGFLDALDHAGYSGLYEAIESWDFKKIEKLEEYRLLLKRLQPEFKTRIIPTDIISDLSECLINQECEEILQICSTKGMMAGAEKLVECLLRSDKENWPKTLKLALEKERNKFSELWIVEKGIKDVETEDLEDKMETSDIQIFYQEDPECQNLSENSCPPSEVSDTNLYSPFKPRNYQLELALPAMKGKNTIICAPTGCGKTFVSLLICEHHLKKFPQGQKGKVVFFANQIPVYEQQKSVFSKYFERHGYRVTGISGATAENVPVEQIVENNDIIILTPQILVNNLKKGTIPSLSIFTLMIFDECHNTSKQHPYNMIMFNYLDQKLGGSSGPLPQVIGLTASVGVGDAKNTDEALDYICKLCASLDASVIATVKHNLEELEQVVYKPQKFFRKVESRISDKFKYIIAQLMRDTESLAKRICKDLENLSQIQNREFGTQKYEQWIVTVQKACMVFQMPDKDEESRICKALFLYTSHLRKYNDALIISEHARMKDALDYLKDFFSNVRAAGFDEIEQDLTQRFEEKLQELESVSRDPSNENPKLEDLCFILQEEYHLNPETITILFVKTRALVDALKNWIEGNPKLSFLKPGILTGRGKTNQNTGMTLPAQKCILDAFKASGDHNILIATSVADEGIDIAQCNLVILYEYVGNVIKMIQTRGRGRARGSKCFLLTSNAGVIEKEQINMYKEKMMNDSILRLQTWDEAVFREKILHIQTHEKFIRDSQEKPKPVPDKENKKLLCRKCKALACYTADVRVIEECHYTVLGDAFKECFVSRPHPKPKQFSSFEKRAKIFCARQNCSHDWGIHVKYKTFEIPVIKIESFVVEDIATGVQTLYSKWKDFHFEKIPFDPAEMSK
# Protocol: Reporter activity was measured 16 h after compound treatment. A nonlinear regression analysis was performed. […] Circles indicate substitutes compared to C-176. d, e, Chemical compounds from (c) were tested at 0.5 µM for inhibitory activity in HEK293T cells transfected with STING (e) or RIG-I (f) in conjunction with IFN-• luciferase reporter, respectively. b, e, f, Values of inhibitor-treated cells were normalized to DMSO-treated cells. […] Cytokine levels were normalized to DMSO-treated control cells. A nonlinear regression analysis was performed for cGAMP stimulation. b, c, BMDMs were pre-treated with C-178 (0.25 µM) and stimulated with cGAMP, cyclic di-GMP, CMA, 90mer dsDNA or LPS for 3 h. The induction of Ifnb1 mRNA levels was assessed by RT-qPCR. d, Heatmaps of RNA sequencing analysis of BMDMs treated with DMSO or CMA and with or without addition of C-178. […] Reporter activity was measured 16 h after transfection and values were normalized to DMSO-treated control cells. c, BMDMs were treated with C-178 (0.25 µM) for 1 h, washed or left untreated and after an additional hour stimulated with cGAMP. […] Flag-STING was immunoprecipitated from whole cell lysate and analysed by autoradiography. In parallel, cell lysates were analysed by immunoblotting for p-TBK1 and STING. d, HEK293T cells expressing STING were treated as indicated (C-178 (1 µM)) and stimulated with CMA for 1.5 h. […]
# TBK1 = target: T2, TBK1 (Homo sapiens, UniProt Q9UHD2); assay: IFN-beta luciferase reporter in HEK293T cells transfected with TBK1; assay type: cell-based; settings: 0.01-5µM
# T2 construct: expressed in transfected cells; host or cells: HEK293T
# T2 sequence (Q9UHD2 1-729): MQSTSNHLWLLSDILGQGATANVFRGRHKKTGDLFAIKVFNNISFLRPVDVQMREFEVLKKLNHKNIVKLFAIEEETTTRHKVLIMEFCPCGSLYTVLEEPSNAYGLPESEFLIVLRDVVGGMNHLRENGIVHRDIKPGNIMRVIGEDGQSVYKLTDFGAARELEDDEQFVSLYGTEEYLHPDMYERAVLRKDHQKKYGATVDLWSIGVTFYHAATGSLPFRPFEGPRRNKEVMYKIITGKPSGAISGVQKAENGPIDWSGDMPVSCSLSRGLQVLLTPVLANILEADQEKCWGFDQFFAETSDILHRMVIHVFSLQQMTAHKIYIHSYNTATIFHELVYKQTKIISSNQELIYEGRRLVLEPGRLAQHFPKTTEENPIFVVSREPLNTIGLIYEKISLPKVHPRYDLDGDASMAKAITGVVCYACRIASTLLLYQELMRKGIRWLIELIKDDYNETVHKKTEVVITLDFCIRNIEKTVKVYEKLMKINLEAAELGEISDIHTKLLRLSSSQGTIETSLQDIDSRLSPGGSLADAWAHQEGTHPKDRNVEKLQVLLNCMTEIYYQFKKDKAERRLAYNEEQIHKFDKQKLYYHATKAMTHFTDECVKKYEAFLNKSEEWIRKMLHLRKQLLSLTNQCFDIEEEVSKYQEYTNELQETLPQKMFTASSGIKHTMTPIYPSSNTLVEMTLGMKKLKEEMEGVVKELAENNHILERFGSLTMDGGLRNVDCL
smiles,measurement,setting,value
"O=C(Nc1ccc(I)cc1)c1ccc([N+](=O)[O-])o1 [C-176, N-(4-iodophenyl)-5-nitro-2-furamide]",RIG-I-driven IFN induction,RIG-I,neither RIG-I nor TBK1-driven IFN induction was affected
same,TBK1-driven IFN induction,TBK1,neither RIG-I nor TBK1-driven IFN induction was affected
